Reference: patent US7691844B2, “Nonpeptide substituted spirobenzoazepines as vasopressin antagonists” (Ortho-McNeil Pharmaceutical, Inc., priority 2000, dated 2010)

Key:
human V2 receptor = human V2 receptor (Homo sapiens, UniProt P30518); assay: In-vitro receptor binding assay (3H-arginine-8-vasopressin), V2
How it was run: (§1)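 Radioligand is 3H-arginine-8-vasopressin, incubated with receptor for one hour at room temperature, then filtered on GF/C plates and counted by scintillation. Non-specific binding was defined with 1.25 μM vasopressin, and results are given as % inhibition.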

V1a [1] = biological target: T1, V1a (Homo sapiens, UniProt P37288); assay: In-vitro receptor binding assay (3H-arginine-8-vasopressin), V1a
How it was run: as §1

V1a [2] = biological target: T1, V1a; assay: V1a vasopressin receptor functional activity (inhibition of vasopressin-induced intracellular calcium, FLIPR, V1a-HEK cells); format: cell-based; design: expressed in transfected cells; conditions: HEK-293 cells transfected with human V1a receptor; vasopressin challenge
Experimental: [formula] (B) V1a Vasopressin Receptor Functional Activity
The V1a receptor is a G-protein coupled receptor, which upon activation triggers an increase in intracellular calcium mobilization. To evaluate compounds for their functional V1a receptor activity, HEK-293 cells were transfected with the human V1a receptor (V1a-HEK cells). HEK-293 cells were grown in DMEM (Dulbecco's modified Eagle Media) supplemented with 10% FBS and glutamine. HEK-cells were passed biweekly by trypsinization and seeded into 96 well plates at 33,000 cells per well. HEK-293 cells were transfected with human V1a receptor DNA using DMRIE-C reagent from Life Technologies. Stable lines were generated by selecting cells grown in culture media containing geneticin. After growing in Packard Clear-View black 96 well plates for 4-6 days, V1a-HEK cells were loaded with the calcium-sensitive fluorescence dye, FLUO-3 AM. Changes in cell fluorescence were quantitated using FLIPR (Fluorometric Imaging Plate Reader; Molecular Devices, Sunnyvale, Calif.). Test compounds were first added to the cells and the resulting changes in fluorescence measured to detect receptor agonistic activity. Five minutes later the cells were challenged with vasopressin to test compounds for their antagonistic activity. Receptor antagonists inhibit the ability of vasopressin to stimulate increases in intracellular fluorescence. IC50's were calculated.

[3] = @ 1 μM, read-out: Receptor Binding V2 (% Inh. @ concentration in μM)
[4] = @ 10 μM, read-out: Receptor Binding V2 (% Inh. @ concentration in μM)
[5] = @ 0.1 μM, read-out: Receptor Binding V2 (% Inh. @ concentration in μM)
[6] = @ 0.1 μM, read-out: Receptor Binding V1a (% Inh. @ concentration in μM)
[7] = read-out: Receptor Binding V1a (% Inh. @ concentration in μM)

human V2 receptor, sequence (P30518 whole entry): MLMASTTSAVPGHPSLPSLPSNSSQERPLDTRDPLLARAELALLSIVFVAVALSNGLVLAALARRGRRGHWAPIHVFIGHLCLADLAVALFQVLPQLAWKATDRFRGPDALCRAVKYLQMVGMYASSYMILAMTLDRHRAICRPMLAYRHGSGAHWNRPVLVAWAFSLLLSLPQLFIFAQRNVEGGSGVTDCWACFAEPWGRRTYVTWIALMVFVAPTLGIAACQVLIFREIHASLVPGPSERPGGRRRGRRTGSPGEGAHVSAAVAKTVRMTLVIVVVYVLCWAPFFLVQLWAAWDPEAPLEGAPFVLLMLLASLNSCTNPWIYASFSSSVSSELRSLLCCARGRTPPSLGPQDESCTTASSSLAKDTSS
T1 sequence (P37288 whole entry): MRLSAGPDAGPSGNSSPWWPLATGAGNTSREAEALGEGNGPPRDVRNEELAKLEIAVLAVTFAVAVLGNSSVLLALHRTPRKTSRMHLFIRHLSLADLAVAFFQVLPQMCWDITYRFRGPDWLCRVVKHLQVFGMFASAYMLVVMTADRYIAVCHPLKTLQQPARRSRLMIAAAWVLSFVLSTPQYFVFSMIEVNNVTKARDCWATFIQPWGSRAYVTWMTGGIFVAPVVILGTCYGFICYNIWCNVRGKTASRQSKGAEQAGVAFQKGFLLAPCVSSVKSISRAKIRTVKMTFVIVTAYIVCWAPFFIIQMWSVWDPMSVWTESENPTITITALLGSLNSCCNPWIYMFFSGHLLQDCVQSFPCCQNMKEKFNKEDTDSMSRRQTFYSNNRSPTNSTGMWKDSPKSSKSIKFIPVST

Compound	IC50 (V1a [1]) [µM]	IC50 (V1a [2]) [µM]	IC50 (human V2 receptor) [µM]	further results
O=C(Nc1ccc(C(=O)N2CCC3(C=CCCC3)Cc3ccccc32)cc1)c1ccccc1-c1ccccc1 (stereo not shown) [Compound 66, 4-(2-Phenylbenzoyl-4-aminobenzoyl)-4-aza-[6,5]-spiro-[5,6]-benzododec-2′-ene]	0.83	0.025	0.19	
O=C(c1ccc(Cl)c(Cl)c1)N1CCC2(C=CCCC2)Cc2ccccc21 (stereo not shown) [Compound 48]		> 1		inhibition at 10 µM (human V2 receptor; [4]): 16%; inhibition at 10 µM (V1a [1]; @ 10 μM, read-out: Receptor Binding V1a (% Inh. @ concentration in μM)): 33%
N#Cc1ccc(C(=O)N2CCC3(C=CCCC3)Cc3ccccc32)cc1 (stereo not shown) [Compound 33]	0.13	> 1		
COC(=O)c1ccc(C(=O)N2CCC3(C=CCCC3)Cc3ccccc32)cc1 (stereo not shown) [Compound 54, 4-(4-Carbomethoxybenzoyl)-4-aza-[6,5]-spiro-[5,6]-benzododec-2′-ene]	0.33	0.067	10	
COc1ccc(C(=O)N2CCC3(C=CCCC3)Cc3ccccc32)cc1 (stereo not shown) [Compound 37]	0.11	0.096		Receptor Binding V2 (% Inh. @ concentration in μM) (human V2 receptor; @ 10 μM): 37% @ 10
Cc1ccc(F)cc1C(=O)Nc1ccc(C(=O)N2CCC3(C=C(CO)CC3)Cc3ccccc32)c(Cl)c1 (stereo not shown) [Compound 137]				inhibition at 0.1 µM (human V2 receptor; [5]): 66%; inhibition at 0.1 µM (V1a [1]; [6]): 53%
COc1ccc(C(=O)N2Cc3ccccc3CC3(C=CCCC3)C2)cc1OC (stereo not shown) [Compound 153]	0.55			inhibition at 1 µM (human V2 receptor; [3]): 0%
COC(=O)C1=CC2(CC1)CCN(C(=O)c1ccc(-n3ccc(C)n3)c(N(C)C)c1)c1ccccc1C2 (stereo not shown) [Compound 213]				inhibition at 1 µM (human V2 receptor; [3]): 55%; inhibition at 0.125 µM (V1a [1]; [7]): 63%
C[S+]([O-])c1ccc(C(=O)Nc2ccc(C(=O)N3CCC4(C=CCCC4)Cc4ccccc43)cc2)cc1 (stereo not shown) [Compound 95]				Receptor Binding V2 (% Inh. @ concentration in μM) (human V2 receptor; @ 1 μM): 0% @ 1; Receptor Binding V1a (% Inh. @ concentration in μM) (V1a [1]; @ 1 μM): 27% @ 1
O=C(c1cc(F)cc(F)c1)N1CCC2(C=CCCC2)Cc2ccccc21 (stereo not shown) [Compound 47]	0.39			Receptor Binding V2 (% Inh. @ concentration in μM) (human V2 receptor; @ 10 μM): 29% @ 10
COC(=O)C1=CC2(CC1)CCN(C(=O)c1ccc(N)cc1)c1ccccc1C2 (stereo not shown) [Compound 134]				inhibition at 0.1 µM (human V2 receptor; [5]): 16%; inhibition at 0.1 µM (V1a [1]; [6]): 21%
COC(=O)C1=CC2(CC1)CCN(C(=O)c1ccc(-n3ccc(C)n3)c(N)c1)c1ccccc1C2 (stereo not shown) [Compound 211]				inhibition at 1 µM (human V2 receptor; [3]): 45%; inhibition at 0.125 µM (V1a [1]; [7]): 55%
Nc1ccc(C(=O)N2CCC3(C=CCCC3)Cc3ccccc32)cc1 (stereo not shown) [Compound 68]	0.81			inhibition at 1 µM (human V2 receptor; [3]): 3%
O=C(Nc1ccccc1)N1CCC2(C=CCCC2)Cc2ccccc21 (stereo not shown) [Compound 61]				Receptor Binding V2 (% Inh. @ concentration in μM) (human V2 receptor; @ 1 μM): 3% @ 1; Receptor Binding V1a (% Inh. @ concentration in μM) (V1a [1]; @ 1 μM): 11% @ 1
O=C(Nc1ccc(C(=O)C2Cc3ccccc3CC3(C=CCCC3)C2)cc1)c1ccccc1-c1ccccc1 (stereo not shown) [Compound 129]				Receptor Binding V2 (% Inh. @ concentration in μM) (human V2 receptor; @ 0.1 μM): 9% @ 0.1; Receptor Binding V1a (% Inh. @ concentration in μM) (V1a [1]; @ 0.1 μM): 30% @ 0.1
O=C(c1ccc(-n2ccc(CO)c2)cc1Cl)N1CCC2(C=CCCC2)Cc2ccccc21 (stereo not shown) [Compound 164]	0.114			inhibition at 0.25 µM (human V2 receptor; @ 0.25 μM, read-out: Receptor Binding V2 (% Inh. @ concentration in μM)): 20%
O=C(c1ccncc1)N1CCC2(C=CCCC2)Cc2ccccc21 (stereo not shown) [Compound 35]	1.4		> 25	
CNCC1=CC2(CC1)CCN(C(=O)c1ccc(NC(=O)c3cc(F)ccc3C)cc1Cl)c1ccccc1C2 (stereo not shown) [Compound 139]				inhibition at 0.1 µM (human V2 receptor; [5]): 17%; inhibition at 0.1 µM (V1a [1]; [6]): 0%
O=C(c1ccc([N+](=O)[O-])cc1)N1CCC2(C=CCCC2)Cc2ccccc21 (stereo not shown) [Compound 49, 4-(4-Nitrobenzoyl)-4-aza-[6,5]-spiro-[5,6]-benzododec-2′-ene]	0.38			inhibition at 10 µM (human V2 receptor; [4]): 30%
O=C(c1ccc(OC2CCCCC2)cc1)N1CCC2(C=CCCC2)Cc2ccccc21 (stereo not shown) [Compound 185]	0.23			inhibition at 1 µM (human V2 receptor; [3]): 42%
COC(=O)C1=CC2(CC1)CCN(C(=O)c1ccc(-n3nccc3C)c(N)c1)c1ccccc1C2 (stereo not shown) [Compound 212]				inhibition at 1 µM (human V2 receptor; [3]): 16%; inhibition at 0.125 µM (V1a [1]; [7]): 29%

Now from value to molecule, other results behind:

IC50 (V1a [1]) [µM]	IC50 (V1a [2]) [µM]	IC50 (human V2 receptor) [µM]	Compound	further results
0.041	0.08		Cc1cc(F)ccc1C(=O)Nc1ccc(C(=O)N2CCC3(C=CCCC3)Cc3ccccc32)cc1 (stereo not shown) [Compound 99]	inhibition at 1 µM (human V2 receptor; [3]): 35%
0.01	0.06	0.55	O=C(Nc1ccc(C(=O)N2CCC3(C=CCCC3)Cc3ccccc32)cc1)c1ccccc1F (stereo not shown) [Compound 101, 4-(2-Fluorobenzoyl-4-aminobenzoyl)-4-aza-[6,5]-spiro-[5,6]-benzododec-2′-ene]	
0.008	0.05	0.067	Cc1cc(F)ccc1C(=O)Nc1ccc(C(=O)N2CCC3(C=CCCC3)Cc3ccccc32)cc1 (stereo not shown) [Compound 100]	
0.005	0.059	0.023	Cc1ccc(F)cc1C(=O)Nc1ccc(C(=O)N2CCC3(C=C(C(=O)NCCCN(C)C)CC3)Cc3ccccc32)cc1 (stereo not shown) [Compound 14]	
0.007	0.135	0.1	COC(=O)CNCC1=CC2(CC1)CCN(C(=O)c1ccc(NC(=O)c3cc(F)ccc3C)cc1)c1ccccc1C2 (stereo not shown) [Compound 15]	
0.009	< 0.01	0.018	CNCC1=CC2(CC1)CCN(C(=O)c1ccc(NC(=O)c3ccccc3-c3ccccc3)cc1)c1ccccc1C2 (stereo not shown) [Compound 3, 4-(2-Phenylbenzoyl-4-aminobenzoyl)-3′-(methylaminomethyl)-4-aza-[6,4]-spiro-[5,6]-benzoundec-2′-ene]	
0.01	0.14	0.07	Cc1ccccc1C(=O)Nc1ccc(C(=O)N2CCC3(C=CCCC3)Cc3ccccc32)cc1 (stereo not shown) [Compound 69]	
0.005	0.07	0.018	Cc1ccc(F)cc1C(=O)Nc1ccc(C(=O)N2CCC3(C=C(C(=O)NCCN(C)C)CC3)Cc3ccccc32)cc1 (stereo not shown) [Compound 13]	
0.1	0.008	0.27	O=C(Nc1ccccc1)c1ccc(C(=O)N2CCCC3(C=CCCC3)c3ccccc32)cc1 (stereo not shown) [Compound 27]	
0.013			COc1ccc(C(=O)N2CCC3(CCCCC3=O)Cc3ccccc32)cc1 (stereo not shown) [Compound 29]	inhibition at 1 µM (human V2 receptor; [3]): 8%
0.035		0.033	O=C(Nc1ccc(C(=O)N2CCC3(CCCCC3=O)Cc3ccccc32)cc1)c1ccccc1-c1ccccc1 (stereo not shown) [Compound 30, 4-(2-Phenylbenzoyl-4-aminobenzoyl)-4-aza-2′-oxo-[6,5]-spiro-[5,6]-benzododecane]	
0.086			O=C(c1ccc(OCc2ccccc2)cc1)N1CCC2(C=CCCC2)Cc2ccccc21 (stereo not shown) [Compound 184]	inhibition at 1 µM (human V2 receptor; [3]): 34%
0.016			COc1cc(C(=O)N2CC[C@@]3(C=C(C(=O)NCCN(C)C)CC3)Cc3ccccc32)ccc1-n1ccc(CO)c1 [Compound 198]	inhibition at 0.1 µM (human V2 receptor; [5]): 0%
0.015			CSc1cccc(C(=O)Nc2ccc(C(=O)N3CCC4(C=CCCC4)Cc4ccccc43)cc2)c1 (stereo not shown) [Compound 93]	inhibition at 1 µM (human V2 receptor; [3]): 26%
0.024		0.57	O=C(Nc1ccc(C(=O)N2CCC3(C=CCCC3)Cc3ccccc32)cc1)c1ccccc1F (single isomer, unassigned) [Compound 108]	
0.042			Cc1ccn(-c2ccc(C(=O)N3CCC4(C=CCCC4)Cc4ccccc43)cc2-n2ccc(C)n2)n1 (stereo not shown) [Compound 151]	inhibition at 1 µM (human V2 receptor; [3]): 20%
0.019		0.091	COc1cc(NC(=O)c2cc(F)ccc2C)ccc1C(=O)N1CCC2(C=CCCC2)Cc2ccccc21 (stereo not shown) [Compound 116]	
0.027		0.2	Cc1ccccc1NC(=O)c1ccc(C(=O)N2CCC3(C=CCCC3)Cc3ccccc32)cc1 (stereo not shown) [Compound 98]	
0.028		0.01	Cc1ccc(F)cc1C(=O)Nc1ccc(C(=O)N2CCC3(C=C(C(=O)NCCO)CC3)Cc3ccccc32)c(Cl)c1 (stereo not shown) [Compound 11]	
0.011		0.082	Cc1ccc(F)cc1C(=O)Nc1ccc(C(=O)N2CCC3(C=C(C(=O)NCCN4CCCCC4)CC3)Cc3ccccc32)cc1 (stereo not shown) [Compound 160]	
0.046		0.159	O=C(Nc1ccc(C(=O)N2CCC3(C=CCCC3)Cc3ccccc32)cc1)c1c(Cl)cccc1Cl (stereo not shown) [Compound 102]	
0.02			O=C(Nc1ccccc1)c1ccc(C(=O)N2CCC3(C=CCCC3)Cc3ccccc32)cc1 (stereo not shown) [Compound 82, 4-(4-Anilinocarbonylbenzoyl)-4-aza-[6,5]-spiro-[5,6]-benzododec-2′-ene]	inhibition at 1 µM (human V2 receptor; [3]): 41%
0.066			O=C(c1ccc(OCC2CC2)cc1)N1CCC2(C=CCCC2)Cc2ccccc21 (stereo not shown) [Compound 181]	inhibition at 1 µM (human V2 receptor; [3]): 31%
0.019			COc1cc(NC(=O)c2ccccc2F)ccc1C(=O)N1CCC2(C=CCCC2)Cc2ccccc21 (stereo not shown) [Compound 115]	inhibition at 0.1 µM (human V2 receptor; [5]): 37%
